Data from patent US20070135436A1, “Chemical compounds” (Clavis Pharma AS, priority 2005, published 2007).
Where two headings read alike, the source gives them in different places.

Columns and labels:
[1] = tested on: several cell lines; settings: prior art references; cited from earlier work
[2] = tested on: breast cancer cell line MaTu; assay: MTT growth inhibition in breast cancer cell line MaTu; type: cell-based, human; settings: MaTu cells; for IC50: 4 days incubation, MTT, read-out: IC50 μM ± Standard Deviation
Protocol: The breast cancer cell line MaTu was seeded, 5×10^3 cells per well, in 96-well-plates. The medium was RMPI 1640 with 2 mM Glutamine and 10% Foetal Bovine Serum. 24 hours later the test compounds were added in 6 concentrations. The cells were incubated for 4 days. The MTT solution was added to each well and incubated for 4 hours. The samples were read by an ELISA reader at 540 nm. The IC50 values were determined from growth curves. The test compounds were troxacitabine elaidic amid, troxacitabine petroselaidoate, troxacitabine-petroselaidic amide and troxacitabine γ-linolenoate.

For CCCCCCCCC=CCCCCCCCC(=O)Nc1ccn(C2COC(CO)O2)c(=O)n1 (stereo not drawn) [oleic acid amid derivative], the “times better activity than the elaidic acid amide counterpart” value [1] is given as 2 to 5 times.
For CCCCCCCC/C=C/CCCCCCCC(=O)Nc1ccn([C@@H]2CO[C@H](CO)O2)c(=O)n1 [troxacitabine elaidic-amide, Troxacitabine N^4-elaidic Acid Amide, reference compound], the IC50 [2] was 3.58 ± 2.56 µM.
With CCCCCCCCCCC/C=C/CCCCC(=O)OC[C@H]1OC[C@@H](n2ccc(N)nc2=O)O1 [troxacitabine petroselaidoate, Troxacitabine-2′-hydroxymethyl-petroselaidoate] the IC50 ([2]; Homo sapiens, 96 h) was 0.18 ± 0.12 µM and the “fold more active than troxacitabine elaidic amide” value ([2]; relative to troxacitabine elaidic amide) was 20 fold.
CCCCC/C=C\C/C=C\C/C=C\CCCCC(=O)OC[C@H]1OC[C@@H](n2ccc(N)nc2=O)O1 [troxacitabine γ-linolenoate, Troxacitabine 2′-hydroxymethyl-6,9,12-linolenoate] showed an IC50 ([2]; Homo sapiens, 96 h) of 0.83 ± 0.59 µM.
In the case of CCCCCCCCCCC/C=C/CCCCC(=O)Nc1ccn([C@@H]2CO[C@H](CO)O2)c(=O)n1 [troxacitabine-petroselaidic amide, Troxacitabine N^4-petroselaidic Acid Amide], the IC50 ([2]; Homo sapiens, 96 h) is reported as 0.15 ± 0.07 µM.
